From patent US20090203750A1, “5-HT2C Receptor Agonists as Anorectic Agents” (priority 2005, published 2009)
Read-outs that look alike come from different tables or passages of the source.

Tests used:
Type in all cases: cell-based
[1] = target: T1, human 5-HT2A receptor (Homo sapiens, UniProt P28223); experiment: Functional activity by Ca++-flux (intracellular calcium mobilization), 5-HT2A; details: Ca++-flux, HEK-293 cells; NA = not active
T1 construct: expressed in transfected cells; host or cells: HEK-293
T1 sequence (P28223 whole entry): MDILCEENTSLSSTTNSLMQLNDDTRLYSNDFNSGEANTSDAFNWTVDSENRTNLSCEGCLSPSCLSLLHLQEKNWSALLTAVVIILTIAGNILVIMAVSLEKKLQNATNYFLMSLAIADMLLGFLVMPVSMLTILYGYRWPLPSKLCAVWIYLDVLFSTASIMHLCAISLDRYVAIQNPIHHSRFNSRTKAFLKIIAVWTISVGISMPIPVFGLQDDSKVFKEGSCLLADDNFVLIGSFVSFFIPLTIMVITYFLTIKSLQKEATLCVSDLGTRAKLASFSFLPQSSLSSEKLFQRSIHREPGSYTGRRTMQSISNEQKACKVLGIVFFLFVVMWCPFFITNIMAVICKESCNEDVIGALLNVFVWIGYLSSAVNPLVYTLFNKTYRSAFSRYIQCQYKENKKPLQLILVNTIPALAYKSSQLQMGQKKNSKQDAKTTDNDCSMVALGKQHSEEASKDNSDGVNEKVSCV
Protocol: The functional activity of the compounds for the human 5-HT2A, human 5-HT2B, and human 5-HT2C receptors is determined by measurement of Ca++-flux as detailed in the Examples, in transiently transfected HEK-293 cells and the results are summarized in Table I. Structures of compounds listed in Table I are given in Scheme 15.
(§1) The functional activity of compounds for the human 5-HT2A, human 5-HT2B, and human 5-HT2C receptors as agonists, partial agonists and antagonists is determined by measurement of Ca++-flux. The results are summarized in Table 1 where EC50 for different receptors are given (nM) and the ratio of activities 2A/2C and 2B/2C are also given. As noted above, other methods for assessing agonist/antagonist function of compounds for 5-HT2 family receptors are known in the art.
(§2) For these studies stably expressing lines of h5-HT2A, h5-HT2B, and h5-HT2C receptors are prepared in HEK-293 cells. For the h5-HT2A and h5-HT2C-INI receptors, stably expressing HEK-293 cell lines were constructed as previously described using a pIRES-NEO vector system (See: Rauser et al, J Pharmacol Exp Ther 299: 83-89, 2001).
(§3) Stable cell lines were plated with ˜40,000 cells/well into uncoated (3T3 cells) or poly-L-lysine coated (HEK293 cells) 96-well plates in DMEM supplemented with 5% dialyzed FBS. 16-24 hrs post-plating, the medium was aspirated and replaced with 30 μl/well of Calcium Assay Kit Component A Dye (Molecular Devices; Sunnyvale, Calif.) dissolved in 30 ml/bottle of assay buffer (2.5 mM probenecid, 20 mM Hepes, and 1× Hanks' Balanced Salt Solution (Invitrogen; Carlsbad, Calif.) (138 mM NaCl, 5.3 mM KCl, 1.3 mM CaCl2, 0.49 mM MgCl2, 0.41 mM MgSO4, 0.44 mM KH2PO4, 0.34 mM Na2HPO4) pH 7.4. Plates were incubated in the dye for 1 hr at 37° C. Dilutions were made in assay buffer as 2× stocks and added to 96-well drug plates. Fluorometric imaging was performed using a FlexStation II plate reader (Molecular Devices) reading the plate at 1.5 second intervals for 1 min. After establishing a fluorescent baseline (excitation at 485 nm and emission at 525 nm, using a […] cutoff), the FlexStation II automatically transferred 30 μl of 2× drug stocks from the drug plate to the cell plate at the 20 second time point with reading for another 40 seconds. Peak relative fluorescence units (RFU) were subtracted from baseline RFUs using SoftMax Pro (Molecular Devices) and values were imported into GraphPad Prism version 4.03 (GraphPad Software; San Diego, Calif.) for analysis. Ca++-flux studies are very convenient for initial screening of large numbers of compounds for agonist activity.
Compounds are resuspended in DMSO at a stock concentration of 2-15 mM and, for a typical agonist screen, are diluted in assay buffer to a final 2× concentration of 20 μM into drugs plates. Compounds are added in duplicate to cell plates using the FlexStation II as described to identify agonists, defined as having >10% of maximal 5-HT response. […] Generally, screens are performed twice with each determination being made in duplicate. Typical Z′-factor (Zhang et al., 1999) values for agonist screens ranged from 0.61-0.79 (5-HT2AR), 0.42-0.81 (5-HT2BR) and 0.38-0.72 (5-HT2CR); these Z′-factor values are adequate for screening studies in which N=2 determinations are made and the screens replicated for a total of N=4 determinations.
(§4) Compounds identified by primary screens to be agonists are subsequently used in concentration-response experiments to verify the initial observations and obtain agonist potencies. Concentration-response studies are performed in triplicate or quadruplicate at each concentration and repeated three times. Baseline-subtracted RFU values imported into GraphPad Prism are analyzed by non-linear regression to obtain pEC50 values, and normalized to maximal 5-HT response to obtain relative efficacies.

[2] = target: T2, human 5-HT2C receptor (Homo sapiens, UniProt P28335); experiment: Functional activity by Ca++-flux (intracellular calcium mobilization), 5-HT2C; details: for 2A/2C ratio: ratio of EC50 5-HT2A / 5-HT2C; for Emax at the 5-HT2C receptor: partial agonist activity; for 2B/2C ratio: ratio of EC50 5-HT2B / 5-HT2C; for selectivity over the 5-HT2A receptor: 5-HT2C versus 5-HT2A
T2 construct: expressed in transfected cells; host or cells: HEK-293
T2 sequence (P28335 33-458): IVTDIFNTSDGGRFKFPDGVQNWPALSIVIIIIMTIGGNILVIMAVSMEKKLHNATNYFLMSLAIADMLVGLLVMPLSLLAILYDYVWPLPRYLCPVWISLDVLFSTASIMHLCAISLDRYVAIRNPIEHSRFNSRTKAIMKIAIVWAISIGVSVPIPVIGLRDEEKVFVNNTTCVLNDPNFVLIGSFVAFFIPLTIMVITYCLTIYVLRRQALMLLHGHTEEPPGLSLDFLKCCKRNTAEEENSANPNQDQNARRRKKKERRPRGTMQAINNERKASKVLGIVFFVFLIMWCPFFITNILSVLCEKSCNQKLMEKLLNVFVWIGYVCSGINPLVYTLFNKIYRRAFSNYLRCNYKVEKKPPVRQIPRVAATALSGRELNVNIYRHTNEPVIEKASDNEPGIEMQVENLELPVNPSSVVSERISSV
Protocol: as §1, with “The results are summarized in Table 1 where EC50 for different receptors are given (nM) and the ratio of activities 2A/2C and 2B/2C are also given.” left out
as §2, §3
Compounds are resuspended in DMSO at a stock concentration of 2-15 mM and, for a typical agonist screen, are diluted in assay buffer to a final 2× concentration of 20 μM into drugs plates. Compounds are added in duplicate to cell plates using the FlexStation II as described to identify agonists, defined as having >10% of maximal 5-HT response. […] Generally, screens are performed twice with each determination being made in duplicate.
as §4

[3] = target: T3, human 5-HT2B receptor (Homo sapiens, UniProt P41595); experiment: Functional activity by Ca++-flux (intracellular calcium mobilization), 5-HT2B
T3 construct: expressed in transfected cells; host or cells: HEK293 (ATCC CRL-1573), retroviral infection with pBabepuro-FLAG-h5-HT2BR, polyclonal line
T3 sequence (P41595 whole entry): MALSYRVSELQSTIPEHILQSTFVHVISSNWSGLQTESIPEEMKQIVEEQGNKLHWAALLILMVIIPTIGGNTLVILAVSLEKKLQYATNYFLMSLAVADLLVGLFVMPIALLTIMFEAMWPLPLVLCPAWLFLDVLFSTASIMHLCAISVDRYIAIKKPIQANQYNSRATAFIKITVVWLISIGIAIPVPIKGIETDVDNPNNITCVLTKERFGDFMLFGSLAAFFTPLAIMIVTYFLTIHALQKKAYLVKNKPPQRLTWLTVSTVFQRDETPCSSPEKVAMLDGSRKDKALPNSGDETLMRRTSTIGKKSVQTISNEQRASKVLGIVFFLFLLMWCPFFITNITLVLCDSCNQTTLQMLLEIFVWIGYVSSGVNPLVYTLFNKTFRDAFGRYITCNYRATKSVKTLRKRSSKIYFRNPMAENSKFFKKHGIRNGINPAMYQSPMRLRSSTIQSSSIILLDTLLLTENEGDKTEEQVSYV

[4] = Ca++-flux, HEK-293 cells, NA = not active, read-out: 5-HT2C human EC50
[5] = Ca++-flux, HEK-293 cells, NA = not active, read-out: 5-HT2B human EC50

Compound: trans-(±)-[2-(4′-Chloro-biphenyl-3-yl)-cyclopropyl]-methylamine Hydrochloride [TKU-II-116]
- EC50 [1]: 4 µM
- EC50 [2, 4]: 124 nM
- 2A/2C ratio [2]: 32.3

Compound: trans-(±)-[2-(3-Bromo-phenyl)-cyclopropyl]-methylamine Hydrochloride [TKU-II-71]
- EC50 [3, 5]: 0.0192 µM
- EC50 [1]: 0.0635 µM
- activity at 5-HT2C receptor [2]: partial agonist activity
- EC50 [2, 4]: 6.5 nM
- Emax at the 5-HT2C receptor [2]: 75%
- 2A/2C ratio [2]: 9.8
- 2B/2C ratio [2]: 2.9

Compound: c1ccc(CNC[C@@H]2C[C@H]2c2ccccc2)cc1 (racemic) [TKU-II-36, trans-(±)-N-Benzyl-(2-phenyl-cyclopropylmethyl)-amine]
- EC50 [3, 5]: 1020 µM
- EC50 [1]: 123 µM
- EC50 [2, 4]: 7460 nM
- 2A/2C ratio [2]: 16.5
- 2B/2C ratio [2]: 137

Compound: trans-(±)-[2-(4-Furan-2-yl-phenyl)-cyclopropyl]-methylamine Hydrochloride [TKU-II-81]
- activity at 5-HT2B receptor [3]: no activity
- EC50 [1]: 281 µM
- selectivity over the 5-HT2A receptor [2]: good selectivity
- EC50 [2, 4]: 82 nM
- 2A/2C ratio [2]: 3431

Compound: trans-(±)-[2-(3-Fluoro-phenyl)-cyclopropyl]-methylamine Hydrochloride [TKU-II-99]
- EC50 [3, 5]: 4.68 µM
- EC50 [1]: 0.0634 µM
- EC50 [2, 4]: 63.2 nM
- 2A/2C ratio [2]: 1.0
- 2B/2C ratio [2]: 74

Compound: trans-(±)-[2-(4′-Trifluoromethyl-biphenyl-3-yl)-cyclopropyl]-methylamine Hydrochloride [TKU-II-117]
- EC50 [1]: 277 µM
- EC50 [2, 4]: 465 nM
- 2A/2C ratio [2]: 596

Compound: CC(C)N[C@@H]1C[C@H]1c1ccccc1 (racemic) [TKU-II-33, trans-(±)-Isopropyl-(2-phenyl-cyclopropyl)-amine]
- EC50 [1]: 1470 µM
- EC50 [2, 4]: 8840 nM
- 2A/2C ratio [2]: 166

Compound: trans-(±)-[2-(4-Bromo-phenyl)-cyclopropyl]-methylamine Hydrochloride [TKU-II-44]
- EC50 [3, 5]: 0.495 µM
- EC50 [1]: 1.06 µM
- EC50 [2, 4]: 180 nM
- 2A/2C ratio [2]: 5.90
- 2B/2C ratio [2]: 2.75

Compound: CN[C@@H]1C[C@H]1c1ccccc1 (racemic) [TKU-II-38, trans-(±)-Methyl-(2-phenyl-cyclopropyl)-amine]
- EC50 [1]: 165 µM
- EC50 [2, 4]: 2500 nM
- 2A/2C ratio [2]: 65.8

Compound: trans-(±)-(2-Naphthalen-2-yl-cyclopropyl)-methylamine hydrochloride [TKU-II-42]
- EC50 [3, 5]: 15.4 µM
- EC50 [1]: 0.951 µM
- EC50 [2, 4]: 6750 nM
- 2A/2C ratio [2]: 0.14
- 2B/2C ratio [2]: 2.29

Compound: c1ccc(CN[C@@H]2C[C@H]2c2ccccc2)cc1 (racemic) [TKU-II-30, trans-(±)-Benzyl-(2-phenyl-cyclopropyl)-amine]
- EC50 [3]: 10700 µM
- EC50 [1]: 9790 µM
- EC50 [2, 4]: 10500 nM
- 2A/2C ratio [2]: 929.5
- 2B/2C ratio [2]: 1020

Compound: trans-(±)-[2-(4′-Chloro-biphenyl-4-yl)-cyclopropyl]-methylamine Hydrochloride [TKU-II-82]
- EC50 [3, 5]: 3.54 µM
- EC50 [1]: 199 µM
- selectivity over the 5-HT2A receptor [2]: good selectivity
- EC50 [2, 4]: 429 nM
- 2A/2C ratio [2]: 464
- 2B/2C ratio [2]: 8.3

Compound: trans-(±)-[2-(2-Bromo-phenyl)-cyclopropyl]-methylamine Hydrochloride [TKU-II-78]
- EC50 [3, 5]: 0.094 µM
- EC50 [1]: 0.0295 µM
- activity at 5-HT2C receptor [2]: partial agonist activity
- EC50 [2, 4]: 1.8 nM
- Emax at the 5-HT2C receptor [2]: 58%
- 2A/2C ratio [2]: 16.4
- 2B/2C ratio [2]: 52.2

Compound: trans-(±)-[2-(4′-Chloro-biphenyl-2-yl)-cyclopropyl]-methylamine Hydrochloride [TKU-II-119]
- EC50 [3, 5]: 0.0637 µM
- EC50 [1]: 0.215 µM
- EC50 [2, 4]: 2.54 nM
- 2A/2C ratio [2]: 85
- 2B/2C ratio [2]: 25

Compound: trans-(±)-[2-(4′-Fluoro-biphenyl-4-yl)-cyclopropyl]-methylamine Hydrochloride [TKU-II-57]
- EC50 [3, 5]: 624 µM
- EC50 [1]: 1030 µM
- EC50 [2, 4]: 10200 nM
- 2A/2C ratio [2]: 101.1
- 2B/2C ratio [2]: 61

Compound: CNC[C@@H]1C[C@H]1c1ccccc1 (racemic) [TKU-II-39, trans-(±)-Methyl-(2-phenyl-cyclopropylmethyl)-amine]
- EC50 [3, 5]: 0.98 µM
- EC50 [1]: 3.71 µM
- EC50 [2, 4]: 718 nM
- 2A/2C ratio [2]: 5.18
- 2B/2C ratio [2]: 1.36

Compound: trans-(−)-[2-(3-Bromo-phenyl)-cyclopropyl]-methylamine Hydrochloride [TKU-II-153-2]
- EC50 [3, 5]: 0.251 µM
- EC50 [1]: 2.27 µM
- EC50 [2, 4]: 307 nM
- 2A/2C ratio [2]: 7.4
- 2B/2C ratio [2]: 0.82

Compound: trans-(−)-(2-Phenyl-cyclopropyl)-methylamine Hydrochloride [TKU-II-115]
- EC50 [3, 5]: 1.54 µM
- EC50 [1]: 1.69 µM
- EC50 [2, 4]: 280 nM
- 2A/2C ratio [2]: 6.02
- 2B/2C ratio [2]: 5.49

Compound: trans-(±)-[2-(2-Fluoro-phenyl)-cyclopropyl]-methylamine Hydrochloride [TKU-II-100]
- EC50 [3, 5]: 0.0002 µM
- EC50 [1]: 0.00062 µM
- activity at 5-HT2C receptor [2]: good potency
- EC50 [2, 4]: 0.66 nM
- 2A/2C ratio [2]: 0.94
- 2B/2C ratio [2]: 0.3

Compound: N[C@@H]1C[C@H]1c1ccccc1 (relative stereo) [Tranylcypromine, trans-2-phenylcyclopropylamine, reference compound]
- EC50 [2]: 271 nM

Compound: trans-(±)-[2-(4′-Trifluoromethyl-biphenyl-4-yl)-cyclopropyl]-methylamine Hydrochloride [TKU-II-58]
- EC50 [3, 5]: 1.27 µM
- EC50 [1]: 3.41 µM
- EC50 [2, 4]: 226 nM
- 2A/2C ratio [2]: 15.1
- 2B/2C ratio [2]: 5.62

Compound: trans-(±)-[2-(4-Fluoro-phenyl)-cyclopropyl]-methylamine Hydrochloride [TKU-II-90]
- EC50 [1]: 0.0071 µM
